# Assay results: patent publication US20260085073A1, “PYRAZOLYLCARBOXAMIDE COMPOUNDS AND THEIR USE IN THERAPY” (Hotspot Therapeutics, Inc., priority 2022, published 2026)
# pIC50: −log10 of the molar value.
# Molecular target: T1, MALT1 (Homo sapiens, UniProt Q9UDY8)
# T1 construct: Avi-tagged FL MALT-1 (Pharmaron, stored at −70° C.); Avi-tag
# T1 sequence (Q9UDY8 1-824): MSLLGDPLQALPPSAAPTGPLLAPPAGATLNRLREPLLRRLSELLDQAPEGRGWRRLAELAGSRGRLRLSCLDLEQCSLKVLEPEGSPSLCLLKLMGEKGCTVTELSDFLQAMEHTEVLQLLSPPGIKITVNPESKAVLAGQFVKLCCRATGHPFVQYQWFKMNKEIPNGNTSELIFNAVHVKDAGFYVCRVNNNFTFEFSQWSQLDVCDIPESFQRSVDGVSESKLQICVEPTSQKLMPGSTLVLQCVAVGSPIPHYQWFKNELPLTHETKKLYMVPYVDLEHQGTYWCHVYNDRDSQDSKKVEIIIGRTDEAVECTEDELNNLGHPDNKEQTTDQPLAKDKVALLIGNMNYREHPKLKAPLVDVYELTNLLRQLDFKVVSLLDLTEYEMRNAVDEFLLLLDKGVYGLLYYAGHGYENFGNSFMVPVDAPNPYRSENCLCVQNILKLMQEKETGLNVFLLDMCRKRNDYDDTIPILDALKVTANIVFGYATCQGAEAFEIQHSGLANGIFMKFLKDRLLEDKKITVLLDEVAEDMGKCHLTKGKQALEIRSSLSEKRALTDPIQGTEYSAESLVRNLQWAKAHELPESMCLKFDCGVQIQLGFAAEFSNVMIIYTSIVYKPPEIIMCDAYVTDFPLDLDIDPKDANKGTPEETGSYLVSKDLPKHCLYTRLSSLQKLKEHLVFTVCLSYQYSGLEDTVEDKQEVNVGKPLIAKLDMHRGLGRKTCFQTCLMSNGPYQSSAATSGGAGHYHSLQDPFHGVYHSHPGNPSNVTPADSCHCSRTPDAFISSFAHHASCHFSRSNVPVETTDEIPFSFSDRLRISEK
# Assay: MALT1 inhibition assay (MALT-1 Fluorogenic Peptide Cleavage Assay, Ac-LRSR-AMC substrate)
# Assay type: biochemical
# Conditions: Avi-tagged FL MALT-1, 30 min pre-incubation, 90 min reaction at room temperature, fluorescence intensity
# Summary of the method: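 Full-length Avi-tagged MALT1 pre-incubated 30 min at room temperature with compounds (2% DMSO final) in HEPES pH 6.89, sodium citrate, TCEP, EDTA, CHAPS buffer. Ac-LRSR-AMC added from 50 µM (Km) or […] working stocks; 90 min at room temperature, AMC fluorescence (ex 342/em 441 nm); IC50 from % inhibition curves.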
row,pIC50,SMILES
1,< 5.00,"Cn1nc(-c2c[nH]c3ncncc23)c(C(F)(F)F)c1C(=O)Nc1ccnc(C(F)(F)F)c1 [Compound I-202, 1-methyl-3-(7H-pyrrolo[2,3-d]pyrimidin-5-yl)-4-(trifluoromethyl)-N-(2-(trifluoromethyl)pyridin-4-yl)-1H-pyrazole-5-carboxamide]"
2,5.00 to 5.60,"Cn1nc(-c2ccccc2CC(F)(F)F)cc1C(=O)Nc1ccnc(C(F)(F)F)c1 [Compound I-203, 1-methyl-3-(2-(2,2,2-trifluoroethyl)phenyl)-N-(2-(trifluoromethyl)pyridin-4-yl)-1H-pyrazole-5-carboxamide]"
3,5.00 to 5.60,"Cn1nc(C(=O)Nc2ccnc(C(F)(F)F)c2)c(C2CC2)c1-c1ccccc1 [Compound I-204, 4-cyclopropyl-1-methyl-5-phenyl-N-(2-(trifluoromethyl)pyridin-4-yl)-1H-pyrazole-3-carboxamide]"
4,5.60 to 6.30,Cn1nc(-c2ccccc2)c(C2CC2)c1C(=O)Nc1ccnc(C(F)(F)F)c1 [Compound I-205]
5,5.60 to 6.30,Cn1nc(Oc2ccccc2)c(C(F)(F)F)c1C(=O)Nc1ccnc(C(F)(F)F)c1 [Compound I-206]
6,< 5.00,Cn1nc(-c2ccccc2)cc1C(=O)Nc1ccc(C(=O)N2CC(O)C2)c(Cl)c1 [Compound I-207]
7,5.00 to 5.60,Cn1nc(COc2ccccc2)c(C(F)(F)F)c1C(=O)Nc1ccnc(C(F)(F)F)c1 [Compound I-208]
8,5.60 to 6.30,CN(c1ccccc1)c1nn(C)c(C(=O)Nc2ccnc(C(F)(F)F)c2)c1C(F)(F)F [Compound I-209]
9,> 6.30,"Cn1nc(-c2cccc3nscc23)c(C(F)(F)F)c1C(=O)Nc1ccnc(C(F)(F)F)c1 [Compound I-210, 3-(benzo[c]isothiazol-4-yl)-1-methyl-4-(trifluoromethyl)-N-(2-(trifluoromethyl)pyridin-4-yl)-1H-pyrazole-5-carboxamide]"
10,5.00 to 5.60,"O=C(Nc1cnc(-n2nccn2)c(Cl)c1)c1c(C(F)(F)F)c(-c2ccccc2)nn1CCO [Compound I-211, N-(5-chloro-6-(2H-1,2,3-triazol-2-yl)pyridin-3-yl)-1-(2-hydroxyethyl)-3-phenyl-4-(trifluoromethyl)-1H-pyrazole-5-carboxamide]"
11,5.00 to 5.60,"Cn1nc(-c2cccc3ncn(C)c23)c(C(F)(F)F)c1NC(=O)c1ccnc(C(F)(F)F)c1 [Compound I-221, N-(1-methyl-3-(1-methyl-1H-benzo[d]imidazol-7-yl)-4-(trifluoromethyl)-1H-pyrazol-5-yl)-2-(trifluoromethyl)isonicotinamide]"
12,> 6.30,Cn1nc(-c2cccc3nccn23)c(C(F)(F)F)c1C(=O)Nc1cnc(-n2nccn2)c(C(F)(F)F)c1 [Compound I-222]
13,5.60 to 6.30,Cc1ccc2ncsc2c1-c1nn(C)c(C(=O)Nc2ccnc(C(F)(F)F)c2)c1C(F)(F)F [Compound I-223]
14,5.60 to 6.30,Cn1nc(-c2cccc3cncn23)c(C(F)(F)F)c1C(=O)Nc1ccnc(C(F)(F)F)c1 [Compound I-224]
15,< 5.00,Cn1nc(-c2cnc3cnccn23)c(C(F)(F)F)c1C(=O)Nc1ccnc(C(F)(F)F)c1 [Compound I-225]
16,< 5.00,Cc1nc2cccc(-c3nn(C)c(C(=O)Nc4ccnc(C(F)(F)F)c4)c3C(F)(F)F)c2s1 [Compound I-226]
17,5.00 to 5.60,"Cn1nc(-c2cccc3nccn23)c(C(F)(F)F)c1C(=O)Nc1ccnc(C2CC2)c1 [Compound I-227, N-(2-cyclopropylpyridin-4-yl)-3-(imidazo[1,2-a]pyridin-5-yl)-1-methyl-4-(trifluoromethyl)-1H-pyrazole-5-carboxamide]"
18,< 5.00,Cc1cc(-c2nn(C)c(C(=O)Nc3ccnc(C(F)(F)F)c3)c2C(F)(F)F)n2ccnc2c1 [Compound I-228]
19,5.00 to 5.60,Cc1cn2c(-c3nn(C)c(C(=O)Nc4ccnc(C(F)(F)F)c4)c3C(F)(F)F)cccc2n1 [Compound I-229]
20,5.60 to 6.30,Cn1nc(-c2cncc3ccsc23)c(C(F)(F)F)c1C(=O)Nc1ccnc(C(F)(F)F)c1 [Compound I-230]
21,< 5.00,Cn1nc(-c2n[nH]c3ncncc23)c(C(F)(F)F)c1C(=O)Nc1ccnc(C(F)(F)F)c1 [Compound I-231]
22,> 6.30,COc1ccc2ncsc2c1-c1nn(C)c(C(=O)Nc2ccnc(C(F)(F)F)c2)c1C(F)(F)F [Compound I-232]
23,5.00 to 5.60,Cn1nc(-c2cccn3nncc23)c(C(F)(F)F)c1C(=O)Nc1ccnc(C(F)(F)F)c1 [Compound I-233]
24,< 5.00,Cn1nc(-c2ccc(F)c3ncsc23)c(C(F)(F)F)c1C(=O)Nc1ccnc(C(F)(F)F)c1 [Compound I-234]
25,5.60 to 6.30,Cn1nc(-c2cccc3ncsc23)c(C(F)(F)F)c1C(=O)Nc1ccc(C(=O)N2CC(O)C2)c(Cl)c1 [Compound I-235]
26,5.00 to 5.60,Cn1nc(-c2cccc3cnoc23)c(C(F)(F)F)c1C(=O)Nc1ccnc(C(F)(F)F)c1 [Compound I-236]

row,pIC50,SMILES
1,5.60 to 6.30,Cn1nc(-c2nccc3ccsc23)c(C(F)(F)F)c1C(=O)Nc1ccnc(C(F)(F)F)c1 [Compound I-237]
2,5.00 to 5.60,Cc1ccc(-c2nn(C)c(C(=O)Nc3ccnc(C(F)(F)F)c3)c2C(F)(F)F)n2ccnc12 [Compound I-238]
3,< 5.00,Cn1nc(-c2n[nH]c3ccncc23)c(C(F)(F)F)c1C(=O)Nc1ccnc(C(F)(F)F)c1 [Compound I-239]
4,5.00 to 5.60,Cn1nc(-c2cccc3ncccc23)c(C(F)(F)F)c1C(=O)Nc1ccc(C(=O)N2CC(O)C2)c(Cl)c1 [Compound I-240]
5,5.00 to 5.60,"Cn1nc(-c2cccc3nccn23)c(C(F)(F)F)c1C(=O)Nc1ccc(C(=O)N2CC(O)C2)c(Cl)c1 [Compound I-241, N-(3-Chloro-4-(3-hydroxyazetidine-1-carbonyl)phenyl)-3-(imidazo[1,2-a]pyridin-5-yl)-1-methyl-4-(trifluoromethyl)-1H-pyrazole-5-carboxamide]"
6,5.00 to 5.60,Cn1nc(-c2n[nH]c3ncccc23)c(C(F)(F)F)c1C(=O)Nc1ccnc(C(F)(F)F)c1 [Compound I-242]
7,5.60 to 6.30,Cn1nc(-c2cccc3[nH]c(=O)sc23)c(C(F)(F)F)c1C(=O)Nc1ccnc(C(F)(F)F)c1 [Compound I-243]
8,5.60 to 6.30,Cn1nc(-c2nsc3ccccc23)c(C(F)(F)F)c1C(=O)Nc1ccnc(C(F)(F)F)c1 [Compound I-244]
9,5.60 to 6.30,Cn1nc(-c2cc(Cl)cc3nccn23)c(C(F)(F)F)c1C(=O)Nc1ccnc(C(F)(F)F)c1 [Compound I-245]
10,5.00 to 5.60,Cn1nc(-c2cccc3oncc23)c(C(F)(F)F)c1C(=O)Nc1ccnc(C(F)(F)F)c1 [Compound I-246]
11,5.60 to 6.30,Cn1nc(-c2ccnc3nccn23)c(C(F)(F)F)c1C(=O)Nc1ccnc(C(F)(F)F)c1 [Compound I-247]
12,< 5.00,Cn1nc(-c2ccc(Cl)c3nccn23)c(C(F)(F)F)c1C(=O)Nc1ccnc(C(F)(F)F)c1 [Compound I-248]
13,5.00 to 5.60,Cn1nc(-c2cccc3[nH]c(=O)ccc23)c(C(F)(F)F)c1C(=O)Nc1ccnc(C(F)(F)F)c1 [Compound I-249]
14,5.60 to 6.30,Cn1nc(-c2cccc3ncc(F)cc23)c(C(F)(F)F)c1C(=O)Nc1ccnc(C(F)(F)F)c1 [Compound I-250]
15,5.60 to 6.30,Cn1nc(-c2c(F)ccc3nc(N)sc23)c(C(F)(F)F)c1C(=O)Nc1ccnc(C(F)(F)F)c1 [Compound I-251]
16,5.00 to 5.60,Cn1nc2c(c1C(=O)Nc1ccnc(C(F)(F)F)c1)CCCc1ccccc1-2 [Compound I-252]
17,< 5.00,Cn1nc(C(=O)Nc2ccnc(C(F)(F)F)c2)c2c1-c1ccccc1CCC2 [Compound I-253]
18,5.60 to 6.30,Cn1nc2c(c1C(=O)Nc1cnc(-n3nccn3)c(Cl)c1)CCCc1ccccc1-2 [Compound I-254]
19,< 5.00,Cn1nc(C(=O)Nc2cnc(-n3nccn3)c(Cl)c2)c2c1-c1ccccc1CCC2 [Compound I-255]
20,< 5.00,Cn1nc2c(c1C(=O)Nc1cnc(-n3nccn3)c(Cl)c1)CCOc1ccccc1-2 [Compound I-256]
21,5.00 to 5.60,Cn1nc2c(c1C(=O)Nc1ccnc(C(F)(F)F)c1)CCc1ccccc1-2 [Compound I-258]
22,< 5.00,Cn1nc2c(c1C(=O)Nc1cnc(-n3nccn3)c(Cl)c1)CCc1ccccc1-2 [Compound I-259]
23,5.60 to 6.30,Cn1nc(C(=O)Nc2ccnc(C(F)(F)F)c2)c2c1-c1ccccc1CC2 [Compound I-260]
24,> 6.30,Cn1nc(-c2c(F)ccc3ncsc23)c(C(F)(F)F)c1C(=O)Nc1ccnc(C(F)(F)F)c1 [Compound I-280]
25,5.00 to 5.60,CNc1nc2cccc(-c3nn(C)c(C(=O)Nc4ccnc(C(F)(F)F)c4)c3C(F)(F)F)c2s1 [Compound I-281]
26,< 5.00,Cn1nc(-c2cccc3ncsc23)c(C(F)(F)F)c1C(=O)Nc1ccnc(C2CC2)c1 [Compound I-282]
